Assay results taken from patent US20220305178A1, “CANCER TREATMENT BY IN VITRO AMINO ACID DEPRIVATION” (YUANHENG BIOMEDICAL CO., LTD., priority 2021, published 2022).

Legend:
[1] = Modified hemodialysis of simulated blood with Asparaginase in the dialysate, amino acids by UPLC; format: biochemical, pig; details: for concentration of Asn of the simulated blood / concentration of Arg of the simulated blood / concentration of Gln of the simulated blood / concentration of Met of the simulated blood / concentration of Ser of the simulated blood: Experimental group 1, Asparaginase 1 K.U./ml in dialysate; for concentration of Arg of the simulated blood / concentration of Gln of the simulated blood / concentration of Met of the simulated blood / concentration of Ser of the simulated blood: non-target amino acid
Protocol: 900 ml of pig's blood and 100 ml of Gibco Roswell Park Memorial Institute (RPMI) 1640 Medium (RPMI 1640 Medium) were mixed to obtain a diluted pig's blood. The diluted pig's blood was further added with 1.8 mg/ml EDTA-K^2+, 0.05% sodium azide; and 132 μl of Heparin with the concentration of 5000 U/ml to obtain a simulated blood, wherein the concentration of EDTA-K^2+ of the simulated blood was […].
The dialysis machine is Toray TR-321. The dialysate for extracorporeal circulation was triple the amount of the simulated blood and was 3000 ml, and the flow rate of dialysate was 500 ml/min. Before the simulated blood entered the dialysis machine, 1X PBS was used to clean the circulation pipeline of the dialysis machine, to achieve the required balance of the artificial kidney (Polyflux 17L), and to get rid of all bubbles in the artificial kidney, and the circulation speed was 250 ml/min. Besides, the effective membrane area of the artificial kidney is 1.7 m^2.
The dialysate consisted of Buffer A (hemodialysis concentrate No. 16, purchased from Taiwan Biotech Co., LTD), Buffer B (Sodium Bicarbonate Concentrate 8.4%, purchased from Fressenius Medical Care Ag, 61348 Bad Homburg, Germany) and R.O. water, wherein the volume ratio of Buffer A, Buffer B and R.O. water is 1:1.225:32.775.
The target amino acid is Asparagine (Asn), and the rest are non-target amino acids. The 3000 ml dialysate was added with 3 ml of Asparaginase with the concentration of 1000 K.U./ml (LEUNASE®) in the Experimental group 1, so the concentration of Asparaginase in the dialysate is 1 K.U./ml. No Asparaginase was added in the Control group 1.
The conductivity of the dialysate was adjusted to about 14 mS/cm. The dialysis temperature was set to be 37° C. When the pressure of the circulation pipeline, the temperature and the conductivity of the dialysate reached the desirable value and were stable, a green light signaled to indicate that hemodialysis was ready. The simulated blood was pumped into the circulation pipeline and entered the artificial kidney. Besides, the simulated blood was further added with Heparin with the concentration of 5000 U/ml at the flow rate of 4.4 ml/hour before the simulated blood entered the artificial kidney. The concentrations of amino acids in the simulated blood before and after dialysis were detected by ultra performance liquid chromatography (UPLC) and the results were shown in Table 1 and Table 2.

[2] = Modified peritoneal dialysis of peritoneal fluid (RPMI 1640 diluent) with Asparaginase in the dialysate (Example 3); format: biochemical
Protocol: (§1) RPMI 1640 Medium was ten times diluted to obtain 1 L of RPMI 1640 diluent with Dianeal PD-2 (Peritoneal Dialysis Solution) and to serve as a peritoneal fluid for the control group 2. 1 L and 2 L of the same RPMI 1640 diluent was prepared for the Experimental group 2 and Experimental group 3, respectively.
(§2) The flow rate or circulation speed of the dialysate was 250 ml/min. Before the peritoneal fluid (RPMI 1640 diluent) entered the dialysis machine, RPMI 1640 diluent was also used to clean the circulation pipeline of the dialysis machine, to achieve the required equilibrium of the artificial kidney, and to get rid of all bubbles in the artificial kidney. Besides, the artificial kidneys of the control group 2 and the experimental group 2 were NV-15U with the effective membrane area of 1.5 m^2; and the artificial kidney of the experimental group 3 was NV-21U with the effective membrane area of 2.1 m^2.
(§3) The dialysate is DIANEAL PD-2 Peritoneal Dialysis Solution with 1.5% Dextrose (Baxter). The target amino acid is Asparagine (Asn), and the concentration of Asparaginase in the dialysate is 1 K.U./ml in the Experimental groups 2 & 3. No Asparaginase was added in the control group 2.
(§4) The dialysis temperature was set to be 37° C. The peritoneal fluid (RPMI 1640 diluent) was first pumped into slot A for temporary storage and then entered the artificial kidney. After peritoneal fluid (RPMI 1640 diluent) left the artificial kidney, peritoneal fluid (RPMI 1640 diluent) further entered slot B for temporary storage, and then left the dialysis machine, e.g. the peritoneal fluid (RPMI 1640 diluent) was pumped back to the peritoneal cavity of the patient. The concentrations of amino acids in the peritoneal fluid before and after dialysis were studied by using Amino Acid Analysis Systems (Waters UPLC® Amino Acid Analysis (AAA) Solution) and the result was shown in Table 3 to Table 5.

[3] = Modified peritoneal dialysis with artificial kidneys of different effective membrane areas (Example 4); format: biochemical; details: for Arg (%) of the peritoneal fluid / Arg (μM) of the peritoneal fluid: non-target amino acid
Protocol: as §1, §2, §3, §4
Example 4 was carried out with the method the same as Example 3 except that the artificial kidneys with different effective membrane areas were adopted. The concentrations of amino acids in the peritoneal fluid before and after dialysis were studied and the result was shown in Table 6.

[4] = dialyzer BG-1.6U (1.6 m^2), dialysis time 0 min
[5] = dialyzer BG-1.6U (1.6 m^2), dialysis time 3 min
[6] = dialyzer BG-1.6U (1.6 m^2), dialysis time 5 min
[7] = dialyzer BG-1.6U (1.6 m^2), dialysis time 10 min
[8] = dialyzer BG-1.6U (1.6 m^2), dialysis time 20 min
[9] = dialyzer BG-1.8U (1.8 m^2), dialysis time 0 min
[10] = dialyzer BG-1.8U (1.8 m^2), dialysis time 3 min
[11] = dialyzer BG-1.8U (1.8 m^2), dialysis time 5 min
[12] = dialyzer BG-1.8U (1.8 m^2), dialysis time 10 min
[13] = dialyzer BG-1.8U (1.8 m^2), dialysis time 20 min
[14] = dialyzer polyflux-140H (1.4 m^2), dialysis time 0 min
[15] = dialyzer polyflux-140H (1.4 m^2), dialysis time 3 min
[16] = dialyzer polyflux-140H (1.4 m^2), dialysis time 5 min
[17] = dialyzer polyflux-140H (1.4 m^2), dialysis time 10 min
[18] = dialyzer polyflux-140H (1.4 m^2), dialysis time 20 min

concentration of Asn of the simulated blood ([1]; Polyflux 17L 1.7 m^2, dialysis time 0 min): 41.8 µM
concentration of Asn of the simulated blood ([1]; Polyflux 17L 1.7 m^2, dialysis time 3 min): 32.3 µM
concentration of Asn of the simulated blood ([1]; Polyflux 17L 1.7 m^2, dialysis time 5 min): 24.2 µM
concentration of Arg of the simulated blood ([1]; dialysis time 0 min): 212.4 µM
concentration of Gln of the simulated blood ([1]; dialysis time 0 min): 381.8 µM
concentration of Met of the simulated blood ([1]; dialysis time 0 min): 38.5 µM
concentration of Ser of the simulated blood ([1]; dialysis time 0 min): 159.8 µM
concentration of Arg of the simulated blood ([1]; dialysis time 3 min): 83.0 µM
concentration of Gln of the simulated blood ([1]; dialysis time 3 min): 147.5 µM
concentration of Met of the simulated blood ([1]; dialysis time 3 min): 16.0 µM
concentration of Ser of the simulated blood ([1]; dialysis time 3 min): 67.7 µM
concentration of Arg of the simulated blood ([1]; dialysis time 5 min): 74.6 µM
concentration of Gln of the simulated blood ([1]; dialysis time 5 min): 131.5 µM
concentration of Met of the simulated blood ([1]; dialysis time 5 min): 14.4 µM
concentration of Ser of the simulated blood ([1]; dialysis time 5 min): 63.2 µM
concentration of Arg of the simulated blood ([1]; dialysis time 10 min): 16.9 µM
concentration of Gln of the simulated blood ([1]; dialysis time 10 min): 24.2 µM
concentration of Met of the simulated blood ([1]; dialysis time 10 min): 3.7 µM
concentration of Ser of the simulated blood ([1]; dialysis time 10 min): 17.5 µM
concentration of Arg of the simulated blood ([1]; dialysis time 20 min): 14.7 µM
concentration of Gln of the simulated blood ([1]; dialysis time 20 min): 18.2 µM
concentration of Met of the simulated blood ([1]; dialysis time 20 min): 3.8 µM
concentration of Ser of the simulated blood ([1]; dialysis time 20 min): 20.0 µM
concentration of Arg of the simulated blood ([1]; dialysis time 30 min): 14.3 µM
concentration of Gln of the simulated blood ([1]; dialysis time 30 min): 18.3 µM
concentration of Met of the simulated blood ([1]; dialysis time 30 min): 3.5 µM
concentration of Ser of the simulated blood ([1]; dialysis time 30 min): 17.8 µM
dialysis time within which Asparagine (Asn) is undetectable ([1]; Experimental group 1, simulated blood, LOD of Asparagine 5 μM): ≤ 10 min
concentration of Asn of the peritoneal fluid ([2]; experimental group 2, Asparaginase 1 K.U./ml in dialysate, NV-15U 1.5 m^2, dialysis time 0 min): 27.284 µM
concentration of Asn of the peritoneal fluid ([2]; experimental group 2, Asparaginase 1 K.U./ml in dialysate, NV-15U 1.5 m^2, dialysis time 3 min): 23.254 µM
concentration of Asn of the peritoneal fluid ([2]; experimental group 2, Asparaginase 1 K.U./ml in dialysate, NV-15U 1.5 m^2, dialysis time 5 min): 9.088 µM
concentration of Arg of the peritoneal fluid ([2]; experimental group 2, Asparaginase 1 K.U./ml in dialysate, NV-15U 1.5 m^2, non-target amino acid, dialysis time 0 min): 102.6 µM
concentration of Arg of the peritoneal fluid ([2]; experimental group 2, Asparaginase 1 K.U./ml in dialysate, NV-15U 1.5 m^2, non-target amino acid, dialysis time 3 min): 90.0 µM
concentration of Arg of the peritoneal fluid ([2]; experimental group 2, Asparaginase 1 K.U./ml in dialysate, NV-15U 1.5 m^2, non-target amino acid, dialysis time 5 min): 70.5 µM
dialysis time within which Arginine (Arg) is lower to 50% of the original concentration ([2]; experimental group 2, NV-15U 1.5 m^2): ≤ 10 min
concentration of Asparagine (Asn) relative to original ([2]; experimental group 2, within 5 mins of dialysis): less than 50%
concentration of Asn of the peritoneal fluid ([2]; experimental group 3, Asparaginase 1 K.U./ml in dialysate, NV-21U 2.1 m^2, dialysis time 0 min): 30.674 µM
concentration of Arg of the peritoneal fluid ([2]; experimental group 3, Asparaginase 1 K.U./ml in dialysate, NV-21U 2.1 m^2, non-target amino acid, dialysis time 0 min): 83.86 µM
concentration of Arg of the peritoneal fluid ([2]; experimental group 3, Asparaginase 1 K.U./ml in dialysate, NV-21U 2.1 m^2, non-target amino acid, dialysis time 3 min): 70.12 µM
concentration of Arg of the peritoneal fluid ([2]; experimental group 3, Asparaginase 1 K.U./ml in dialysate, NV-21U 2.1 m^2, non-target amino acid, dialysis time 5 min): 37.31 µM
concentration of Arg of the peritoneal fluid ([2]; experimental group 3, Asparaginase 1 K.U./ml in dialysate, NV-21U 2.1 m^2, non-target amino acid, dialysis time 10 min): 19.99 µM
dialysis time within which Arginine (Arg) is lower to 50% of the original concentration ([2]; experimental group 3, NV-21U 2.1 m^2): ≤ 5 min
dialysis time within which Asparagine (Asn) is undetectable ([2]; experimental group 3, NV-21U 2.1 m^2, peritoneal fluid, LOD of Asparagine 5 μM): ≤ 3 min
Substance: Asparaginase
concentration of non-target amino acid maintained ([3]; Example 4, artificial kidneys 1.4 to 1.8 m^2): about 50%
Asn (%) of the peritoneal fluid [3, 4]: 100%
Asn (μM) of the peritoneal fluid [3, 4]: 45.5 µM
Asn (%) of the peritoneal fluid [3, 5]: 73.90%
Asn (μM) of the peritoneal fluid [3, 5]: 33.6 µM
Arg (%) of the peritoneal fluid [3, 4]: 100%
Arg (μM) of the peritoneal fluid [3, 4]: 95.3 µM
Arg (%) of the peritoneal fluid [3, 5]: 86.3%
Arg (μM) of the peritoneal fluid [3, 5]: 82.2 µM
Arg (%) of the peritoneal fluid [3, 6]: 74.8%
Arg (μM) of the peritoneal fluid [3, 6]: 71.3 µM
Arg (%) of the peritoneal fluid [3, 7]: 65.8%
Arg (μM) of the peritoneal fluid [3, 7]: 62.7 µM
Arg (%) of the peritoneal fluid [3, 8]: 49.7%
Arg (μM) of the peritoneal fluid [3, 8]: 47.4 µM
Asn (%) of the peritoneal fluid [3, 9]: 100%
Asn (μM) of the peritoneal fluid [3, 9]: 36.7 µM
Arg (%) of the peritoneal fluid [3, 9]: 100%
Arg (μM) of the peritoneal fluid [3, 9]: 89.0 µM
Arg (%) of the peritoneal fluid [3, 10]: 75.1%
Arg (μM) of the peritoneal fluid [3, 10]: 66.8 µM
Arg (%) of the peritoneal fluid [3, 11]: 76.5%
Arg (μM) of the peritoneal fluid [3, 11]: 68.0 µM
Arg (%) of the peritoneal fluid [3, 12]: 61.5%
Arg (μM) of the peritoneal fluid [3, 12]: 54.7 µM
Arg (%) of the peritoneal fluid [3, 13]: 61.2%
Arg (μM) of the peritoneal fluid [3, 13]: 54.4 µM
Asn (%) of the peritoneal fluid [3, 14]: 100%
Asn (μM) of the peritoneal fluid [3, 14]: 36.9 µM
Asn (%) of the peritoneal fluid [3, 15]: 85.8%
Asn (μM) of the peritoneal fluid [3, 15]: 31.6 µM
Asn (%) of the peritoneal fluid [3, 16]: 62.3%
Asn (μM) of the peritoneal fluid [3, 16]: 23.0 µM
Arg (%) of the peritoneal fluid [3, 14]: 100%
Arg (μM) of the peritoneal fluid [3, 14]: 93.7 µM
Arg (%) of the peritoneal fluid [3, 15]: 93.6%
Arg (μM) of the peritoneal fluid [3, 15]: 87.6 µM
Arg (%) of the peritoneal fluid [3, 16]: 84.8%
Arg (μM) of the peritoneal fluid [3, 16]: 79.4 µM
Arg (%) of the peritoneal fluid [3, 17]: 71.4%
Arg (μM) of the peritoneal fluid [3, 17]: 66.9 µM
Arg (%) of the peritoneal fluid [3, 18]: 57.9%
Arg (μM) of the peritoneal fluid [3, 18]: 54.2 µM
